The values that follow come from patent US9029414B2, “Triterpenoid compounds and methods of use thereof” (Biotechnology Research Corporation, priority 2008, dated 2015).

For one test, the target named is T1, MC2 receptor (Homo sapiens, UniProt Q01718).
T1 construct: expressed in transfected cells
Kind of test: Cellular receptor functional assay (cAMP), MC2. In kind it is cell-based. As to the method: DA001 inhibits ligand binding to MC1 and MC4 receptors. To determine whether the inhibitory effect is due to agonist or antagonist activity, DA001 was evaluated at 6 or 8 concentrations in cellular assays assessing receptor function. Upon ligand binding, the MC1 or MC4 receptor is activated which leads to an increase in intracellular cyclic AMP. […] DA001 alone is unable to induce cAMP increase (blue square dots). […] DA001 was further evaluated with MC2 receptor functional assay. Upon ligand binding, the MC2 receptor is activated which leads to an increase in intracellular cyclic AMP.

The target in test [1] is serotonin (5-HT1D subtype) receptor (Homo sapiens, UniProt P28221). Put plainly: Radioligand competition binding assay, 5-HT1D. Conditions: 10 μM in duplicate, read-out: % inhibition of control specific binding. Here is the method: DA001 was evaluated against 109 receptor binding assays and 17 enzyme assays, comprising of selective, central and peripheral therapeutically-relevant targets. Radioligand competition assays were conducted whereby DA001 was tested at one concentration (10 μM) in duplicate. […] It could compete with the radioligand [^125I-NDP-alpha-melanocyte-stimulating hormone (α-MSH)] binding for MC1 and MC4 but not MC3 and MC5 nor the related family, the melanin concentrating hormone receptors (MCH1 and MCH2).

The test system of a further test is hippocampal neurons. Kind of test: Hippocampal neuron survival assay against NMDA excitotoxicity (LDH). In kind it is cell-based, Sprague-Dawley rats. The note with it: 30 μM 24 hrs, NMDA 10-200 μM 20 min. Here is the method:
Hippocampal neurons/cortical neurons were prepared from embryonic day 18 Sprague-Dawley rats. After the cortices had been removed from the brain, isolated cells were plated onto Poly d-Lysine (PDL) (P0899, Sigma)-coated 48 well plates (150687, NUNC) at a density of 2×10^5 cell per well using Neurobasal Medium (NB) (21103-049, Gibco) with B27 supplement (17504-044, Gibco), penicillin/streptomycin (15140, Gibco) and 1 mM L-glutamine (25030, Gibco). The cell culture was incubated at 37° C. in a humidified atmosphere of 5% CO2 in air. Medium was changed to growth medium (Neurobasal Medium with penicillin/streptomycin and B27 supplement) after 3 hours. Half medium was changed with growth medium every 2-3 days to maintain the cells until day 10 in vitro (DIV 10). Serial dilutions of samples were prepared in growth medium and DMSO was used as vehicle control. For pre-treating assay, half of the medium was removed from wells, and equal amount of diluted samples were replaced. Cells were then incubated for 2 hours at 37° C. in a humidified atmosphere of 5% CO2 in air. […] Afterwards, cells were incubated in growth medium for 18-24 hours and detected with Cytotoxicity Detection Kit (1644793, Roche).
Hippocampal neurons were treated with DA021 and subsequently subjected to varying concentrations of NMDA. […] LDH release into the medium was then measured.

The subject of the next test is BALB/c mice. Put plainly: Murine model of oxazolone-induced ear edema. In kind it is in vivo. As to the method: This is a contract research performed by Washington Biotechnology Inc., Columbia, Md., protocol 1041. On day 0, 42 BALB/c mice (female, Harlan Sprague-Dawley, 5-6 weeks) were shaved on the ventral surface of the right ear. 100 μl of the 5% oxazolone solution (Sigma) was then applied to the saved ear. The treated mice were then returned to the cage and kept for additional 6 days. On day 7, the mice were weighed and dosed orally with 10 ml/kg water or DA021 at either 30 mg/kg or 100 mg/kg or topically applied on both sides of both ears with 25 μl betamethasone. Thirty minutes after oral dosing, 5 μl of 3% oxazolone was applied to both sides of the right ear and 5 μl of acetone was applied to both sides of the contralateral ear. Twenty-four hours after 3% oxazolone/acetone application, the mice were euthanized, the ears removed and weighed.
To evaluate the efficacy and potency of DA021 in acute inflammation, an oxazolone-induced ear edema model was carried out in mice. Oxazolone-induced ear edema model is a commonly used skin inflammatory animal model. Oxazolone (OA) is an allergen that induces immunological responses that lead to surface edema. […] Betamethasone (BMS) which was used as a positive control, is a corticosteroid that is used as an anti-itching cream and other anti-inflammatory remedies.
Mice were then treated with betamethasone (BMS, mg, topical) or DA021 (mg/kg, p.o.) and the ears were removed and weighed. N=10 per group, significance (p-value) was calculated versus OA+vehicle using the Student's T-test, *=P≦1×10^−7, #=P≦1×10^−12.

As usually defined, the inhibition is the share of the control response that was lost under treatment.

T1 sequence (Q01718 whole entry): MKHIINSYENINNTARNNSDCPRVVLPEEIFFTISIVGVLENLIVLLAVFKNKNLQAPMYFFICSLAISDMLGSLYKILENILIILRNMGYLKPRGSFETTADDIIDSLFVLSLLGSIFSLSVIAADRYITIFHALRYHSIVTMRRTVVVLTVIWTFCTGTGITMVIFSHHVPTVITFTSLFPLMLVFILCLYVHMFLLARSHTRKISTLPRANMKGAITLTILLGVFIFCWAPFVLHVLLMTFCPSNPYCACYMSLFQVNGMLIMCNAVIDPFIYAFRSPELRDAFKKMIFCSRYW
T1 sequence (Q8TCY5 whole entry partner): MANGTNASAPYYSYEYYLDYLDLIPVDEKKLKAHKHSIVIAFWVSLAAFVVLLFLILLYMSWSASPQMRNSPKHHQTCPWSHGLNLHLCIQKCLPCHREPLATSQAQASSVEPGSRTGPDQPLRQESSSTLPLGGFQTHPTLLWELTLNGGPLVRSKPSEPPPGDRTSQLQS
Chain of serotonin (5-HT1D subtype) receptor (P28221 whole entry): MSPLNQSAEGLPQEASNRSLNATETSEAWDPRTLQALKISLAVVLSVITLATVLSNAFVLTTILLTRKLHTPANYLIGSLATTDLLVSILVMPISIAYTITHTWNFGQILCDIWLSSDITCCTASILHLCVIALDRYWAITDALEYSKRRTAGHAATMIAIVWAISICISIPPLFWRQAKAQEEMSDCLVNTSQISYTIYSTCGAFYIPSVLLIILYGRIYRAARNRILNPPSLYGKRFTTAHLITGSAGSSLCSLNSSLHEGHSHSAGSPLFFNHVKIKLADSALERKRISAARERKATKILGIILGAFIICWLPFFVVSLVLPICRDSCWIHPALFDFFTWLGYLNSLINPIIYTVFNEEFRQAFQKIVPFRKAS

In the case of `C=C(C)[C@@H]1CC[C@]2(C(=O)O)CC[C@]3(C)C(CC[C@@H]4[C@@]5(C)CC[C@H](O[C@@H]6OC[C@H](O)[C@H](O)[C@H]6O[C@@H]6O[C@@H](C)[C@H](O)[C@@H](O)[C@H]6O)[C@@](C)(CO)[C@@H]5CC[C@]43C)[C@@H]12` (stereo partly drawn) [DA001, 3-O-[α-L-rhamnopyranosyl-(1→2)-α-L-arabinopyranosyl]-3,23-dihydroxy-20(29)-lupen-28-oic acid], on MC2 receptor (absence of ligand ACTH1-39, cells over-expressing MC2), the “Agonist effect, cAMP measurement” value came out at 0. On MC2 receptor (presence of ligand ACTH1-39, cells over-expressing MC2), the “Antagonist effect, cAMP measurement” value is −8. In test [1], the inhibition at 10 µM was determined as 30%.

In the case of `C=C(C)[C@@H]1CC[C@]2(/C=N/O)CC[C@]3(C)C(CCC4[C@@]5(C)CCC(=O)[C@@](C)(CO)[C@@H]5CC[C@]43C)C12` (some centres unmarked) [DA021], the “protection from NMDA-induced excitotoxicity (LDH release)” value in the test with hippocampal neurons is reported as “protects neurons against differing concentrations of NDMA”. In the test on BALB/c mice (30 mg/kg po), the “Change in Ear Weight (mg), Average” value was 48.3 mg and the “Change in Ear Weight, % Inhibition” value stood at 31.7%. Also, in the test on BALB/c mice (100 mg/kg po), the “Change in Ear Weight (mg), Average” value is 33.3 mg and the “Change in Ear Weight, % Inhibition” value turned out to be 52.9%.
